From PMC8919667 (The Journal of Cell Biology, 2022)

T1: 6His-3FLAG-Cdc14 (Saccharomyces cerevisiae, UniProt Q00684)
T1 sequence (Q00684 1-551): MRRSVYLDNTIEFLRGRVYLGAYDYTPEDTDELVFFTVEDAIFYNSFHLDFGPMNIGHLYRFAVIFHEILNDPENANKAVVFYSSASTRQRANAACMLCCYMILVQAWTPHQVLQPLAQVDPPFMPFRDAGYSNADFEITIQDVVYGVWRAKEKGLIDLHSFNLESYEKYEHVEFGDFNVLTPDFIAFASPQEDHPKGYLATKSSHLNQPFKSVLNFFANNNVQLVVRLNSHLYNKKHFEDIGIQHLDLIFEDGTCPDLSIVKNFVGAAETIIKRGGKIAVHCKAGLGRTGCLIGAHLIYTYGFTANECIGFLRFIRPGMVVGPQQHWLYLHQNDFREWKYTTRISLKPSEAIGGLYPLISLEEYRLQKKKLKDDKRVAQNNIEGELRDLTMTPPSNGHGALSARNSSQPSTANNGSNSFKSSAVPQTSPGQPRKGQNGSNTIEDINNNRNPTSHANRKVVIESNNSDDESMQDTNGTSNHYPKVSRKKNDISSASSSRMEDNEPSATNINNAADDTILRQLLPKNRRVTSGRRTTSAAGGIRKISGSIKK

T2: 3HA-Atg13-p PxL2m (S. cerevisiae, UniProt Q06628 1-738, PxL2m (A207-IG), phosphorylated (Atg13-p); residues not stated)
T2 sequence (looked up): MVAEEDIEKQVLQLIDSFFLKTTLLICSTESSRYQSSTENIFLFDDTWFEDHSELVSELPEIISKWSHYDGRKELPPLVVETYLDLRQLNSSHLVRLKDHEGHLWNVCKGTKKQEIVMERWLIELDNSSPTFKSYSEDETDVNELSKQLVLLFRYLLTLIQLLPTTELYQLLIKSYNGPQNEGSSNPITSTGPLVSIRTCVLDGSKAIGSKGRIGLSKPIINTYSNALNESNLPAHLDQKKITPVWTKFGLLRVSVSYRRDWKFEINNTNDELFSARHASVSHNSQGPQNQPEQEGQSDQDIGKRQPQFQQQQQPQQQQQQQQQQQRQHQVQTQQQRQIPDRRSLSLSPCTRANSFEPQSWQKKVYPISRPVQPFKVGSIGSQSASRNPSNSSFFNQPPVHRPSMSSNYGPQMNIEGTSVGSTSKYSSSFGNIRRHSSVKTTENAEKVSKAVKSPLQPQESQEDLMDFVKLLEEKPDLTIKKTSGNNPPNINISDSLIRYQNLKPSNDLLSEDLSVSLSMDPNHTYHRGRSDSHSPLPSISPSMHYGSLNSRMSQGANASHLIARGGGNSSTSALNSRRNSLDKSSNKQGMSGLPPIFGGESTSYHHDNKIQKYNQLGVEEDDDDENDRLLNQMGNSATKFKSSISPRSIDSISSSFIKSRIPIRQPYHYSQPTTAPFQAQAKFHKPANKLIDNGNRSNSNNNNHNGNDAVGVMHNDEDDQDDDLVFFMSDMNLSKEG


Legend:
6His-3FLAG-Cdc14 = target: T1, 6His-3FLAG-Cdc14; test: colorimetric p-nitrophenolate release, absorbance at […] nm; format: biochemical; conditions: 10 mM pNPP, 20 mM Tris pH 7.5, 4 mM MgCl2, 1 mM EGTA, room temperature
3HA-Atg13-p PxL2m = target: T2, 3HA-Atg13-p PxL2m; test: pull-down

Row | binding result (3HA-Atg13-p PxL2m) | Molecule | colorimetric p-nitrophenolate release, absorbance at 405 nm (6His-3FLAG-Cdc14)
1 |  | O=[N+]([O-])c1ccc(OP(=O)(O)O)cc1 [p-nitrophenyl phosphate] | 6His-3FLAG-Cdc14 exhibited concentration- and time-dependent phosphatase activity
2 | binds | 6His-3FLAG-Cdc14-C283S (enzyme, S. cerevisiae, UniProt Q00684 1-551, looked up) MRRSVYLDNTIEFLRGRVYLGAYDYTPEDTDELVFFTVEDAIFYNSFHLDFGPMNIGHLYRFAVIFHEILNDPENANKAVVFYSSASTRQRANAACMLCCYMILVQAWTPHQVLQPLAQVDPPFMPFRDAGYSNADFEITIQDVVYGVWRAKEKGLIDLHSFNLESYEKYEHVEFGDFNVLTPDFIAFASPQEDHPKGYLATKSSHLNQPFKSVLNFFANNNVQLVVRLNSHLYNKKHFEDIGIQHLDLIFEDGTCPDLSIVKNFVGAAETIIKRGGKIAVHSKAGLGRTGCLIGAHLIYTYGFTANECIGFLRFIRPGMVVGPQQHWLYLHQNDFREWKYTTRISLKPSEAIGGLYPLISLEEYRLQKKKLKDDKRVAQNNIEGELRDLTMTPPSNGHGALSARNSSQPSTANNGSNSFKSSAVPQTSPGQPRKGQNGSNTIEDINNNRNPTSHANRKVVIESNNSDDESMQDTNGTSNHYPKVSRKKNDISSASSSRMEDNEPSATNINNAADDTILRQLLPKNRRVTSGRRTTSAAGGIRKISGSIKK | 
